Data on 42 compounds can be found in patent US12116343B2, “Inhibitors of APOL1 and methods of using same” (Vertex Pharmaceuticals Incorporated, priority 2020, dated 2024).

As a reminder, the IC50 is the concentration at which inhibition is half-maximal.

In the test the target is T1, G1 APOL1 (Homo sapiens, UniProt O14791, I384M/S342G).
T1 construct: expressed in transfected cells
T1 sequence (O14791 28-398 S342G/I384M): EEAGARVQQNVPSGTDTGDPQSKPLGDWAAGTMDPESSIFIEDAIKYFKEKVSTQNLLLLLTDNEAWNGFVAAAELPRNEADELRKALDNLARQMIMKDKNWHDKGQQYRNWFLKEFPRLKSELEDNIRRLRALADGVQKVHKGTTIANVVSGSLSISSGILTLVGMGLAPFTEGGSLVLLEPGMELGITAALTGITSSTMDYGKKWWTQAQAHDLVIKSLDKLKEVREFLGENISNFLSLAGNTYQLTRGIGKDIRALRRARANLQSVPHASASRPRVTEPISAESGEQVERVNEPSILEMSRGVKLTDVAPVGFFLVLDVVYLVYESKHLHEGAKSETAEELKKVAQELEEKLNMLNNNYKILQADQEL
In words: Acute APOL1 Thallium Assay with inducible stable clones of HEK 293 cells. It is filed as cell-based. The following applies: HEK 293 T-Rex cells expressing G1 APOL1; read-out: Thallium Assay (IC50). The method in brief: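 Tetracycline-inducible HEK293 T-Rex clone G1 DC3.25 expressing G1 APOL1, plated at 26000 cells/well in Opti-MEM with tetracycline induction. APOL1 pore activity read on FLIPR as fluorescence increase from Tl+ influx into cells loaded with a Tl+-sensitive AM-ester dye.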
Regarding `CC1C[C@H](NC(=O)[C@H]2C[C@H](c3c(-c4ccc(F)cc4)[nH]c4c(F)cc(F)cc43)C2)C(=O)N1` (mixture of isomers) [Compound 84], the IC50 is greater than 1 µM.
For `O=C1CC(NC(=O)[C@H]2C[C@H](c3c(-c4ccc(F)cc4)[nH]c4c(F)cc(F)cc43)C2)CN1` (mixture of isomers) [Compound 44], the IC50 was greater than 1 µM.
In the case of `CC(NC(=O)[C@H]1C[C@H](c2c(-c3ccc(F)cc3)[nH]c3c(F)cc(F)cc32)C1)C(N)=O` (mixture of isomers) [Compound 68], the IC50 lay within 0.25 to 1 µM.
Turning to `CC(NC(=O)[C@H]1C[C@H](c2c(-c3ccc(F)cc3)[nH]c3c(F)cc(F)cc32)C1)c1ccn(C)n1` (mixture of isomers) [Compound 75], the IC50 fell in the range of 0.25 to 1 µM.
Turning to `CC(NC(=O)[C@H]1C[C@H](c2c(-c3ccc(F)cc3)[nH]c3c(F)cc(F)cc32)C1)c1ccnn1C` (mixture of isomers) [Compound 76], the IC50 is greater than 1 µM.
With `CC(NC(=O)[C@H]1C[C@H](c2c(-c3ccc(F)cc3)[nH]c3c(F)cc(F)cc32)C1)c1ccn[nH]1` (mixture of isomers) [Compound 81], the IC50 is 0.25 to 1 µM.
As for `NC(=O)CNC(=O)[C@H]1C[C@H](c2c(-c3ccc(F)cc3)[nH]c3c(F)cc(F)cc32)C1` [Compound 1, N-(2-amino-2-oxo-ethyl)-3-[5,7-difluoro-2-(4-fluorophenyl)-1H-indol-3-yl]cyclobutanecarboxamide], the figure is less than 0.25 µM; as for `O=C1NCCC1NC(=O)[C@H]1C[C@H](c2c(-c3ccc(F)cc3)[nH]c3c(F)cc(F)cc32)C1` (stereo partly drawn) [Compound 2], less than 0.25 µM.
Regarding `NCC(O)CNC(=O)[C@H]1C[C@H](c2c(-c3ccc(F)cc3)[nH]c3c(F)cc(F)cc32)C1` (stereo partly drawn) [Compound 3], the IC50 was 0.25 to 1 µM.
For `NCCCNC(=O)[C@H]1C[C@H](c2c(-c3ccc(F)cc3)[nH]c3c(F)cc(F)cc32)C1` [Compound 4], the IC50 is 0.25 to 1 µM.
As for `O=C(NCC1CC(F)(F)C1)[C@H]1C[C@H](c2c(-c3ccc(F)cc3)[nH]c3c(F)cc(F)cc32)C1` [Compound 41], the IC50 was greater than 1 µM.
For the compound `O=C(NCC1CCOCC1)[C@H]1C[C@H](c2c(-c3ccc(F)cc3)[nH]c3c(F)cc(F)cc32)C1` [Compound 42], the IC50 was greater than 1 µM.
Consider `O=C1NCC[C@H]1NC(=O)[C@H]1C[C@H](c2c(-c3ccc(F)cc3)[nH]c3c(F)cc(F)cc32)C1` [Compound 45], for which the half-maximal inhibitory concentration (IC50) is 0.25 to 1 µM.
As for `O=C(NCCO)[C@H]1C[C@H](c2c(-c3ccc(F)cc3)[nH]c3c(F)cc(F)cc32)C1` [Compound 46, 3-[5,7-difluoro-2-(4-fluorophenyl)-1H-indol-3-yl]-N-(2-hydroxyethyl)cyclobutanecarboxamide], the figure is less than 0.25 µM; as for `O=C(NC1(CO)CC1)[C@H]1C[C@H](c2c(-c3ccc(F)cc3)[nH]c3c(F)cc(F)cc32)C1` [Compound 47], 0.25 to 1 µM; as for `Cn1cnc(CNC(=O)[C@H]2C[C@H](c3c(-c4ccc(F)cc4)[nH]c4c(F)cc(F)cc43)C2)c1` [Compound 48], less than 0.25 µM.
Consider `CN(CC1(CO)CC1)C(=O)[C@H]1C[C@H](c2c(-c3ccc(F)cc3)[nH]c3c(F)cc(F)cc32)C1` [Compound 49], for which the IC50 was greater than 1 µM.
For the compound `O=C(CNC(=O)[C@H]1C[C@H](c2c(-c3ccc(F)cc3)[nH]c3c(F)cc(F)cc32)C1)NC1CC1` [Compound 50], the IC50 is greater than 1 µM.
With `CN(CC(N)=O)C(=O)[C@H]1C[C@H](c2c(-c3ccc(F)cc3)[nH]c3c(F)cc(F)cc32)C1` [Compound 51], the IC50 fell in the range of 0.25 to 1 µM.
Consider `O=C([C@H]1C[C@H](c2c(-c3ccc(F)cc3)[nH]c3c(F)cc(F)cc32)C1)N(CCO)C1CC1` [Compound 52], for which the IC50 was 0.25 to 1 µM.
For `COCC1(CNC(=O)[C@H]2C[C@H](c3c(-c4ccc(F)cc4)[nH]c4c(F)cc(F)cc43)C2)CC1` [Compound 53], the IC50 was greater than 1 µM.
For the compound `COCC1(NC(=O)[C@H]2C[C@H](c3c(-c4ccc(F)cc4)[nH]c4c(F)cc(F)cc43)C2)CC1` [Compound 54], the half-maximal inhibitory concentration (IC50) was less than 0.25 µM.
For the compound `CCOCC1(CNC(=O)[C@H]2C[C@H](c3c(-c4ccc(F)cc4)[nH]c4c(F)cc(F)cc43)C2)CC1` [Compound 55], the half-maximal inhibitory concentration (IC50) was greater than 1 µM.
For `NC(=O)C1(NC(=O)[C@H]2C[C@H](c3c(-c4ccc(F)cc4)[nH]c4c(F)cc(F)cc43)C2)CC1` [Compound 56], the half-maximal inhibitory concentration (IC50) lay in the range of 0.25 to 1 µM.
Take `O=C([C@H]1C[C@H](c2c(-c3ccc(F)cc3)[nH]c3c(F)cc(F)cc32)C1)N1C[C@@H](CO)OCC12CC2` [Compound 57]: the IC50 is greater than 1 µM.
In the case of `CN(C(=O)[C@H]1C[C@H](c2c(-c3ccc(F)cc3)[nH]c3c(F)cc(F)cc32)C1)C1(CO)CC1` [Compound 58], the IC50 lay in the range of 0.25 to 1 µM.
For the compound `O=C(NC1(CCO)CC1)[C@H]1C[C@H](c2c(-c3ccc(F)cc3)[nH]c3c(F)cc(F)cc32)C1` [Compound 59], the IC50 was in the range of 0.25 to 1 µM.
As for `CC(N)(C(=O)NC(=O)[C@H]1C[C@H](c2c(-c3ccc(F)cc3)[nH]c3c(F)cc(F)cc32)C1)C(F)(F)F` (stereo partly drawn) [Compound 60], the figure is greater than 1 µM; as for `C[C@@H](NC(=O)[C@H]1C[C@H](c2c(-c3ccc(F)cc3)[nH]c3c(F)cc(F)cc32)C1)C(=O)N(C)C` [Compound 61], greater than 1 µM; as for `CN(C)C(=O)CN(C)C(=O)[C@H]1C[C@H](c2c(-c3ccc(F)cc3)[nH]c3c(F)cc(F)cc32)C1` [Compound 62], 0.25 to 1 µM.
As for `CC(C)N1CCN(C(=O)[C@H]2C[C@H](c3c(-c4ccc(F)cc4)[nH]c4c(F)cc(F)cc43)C2)CC1=O` [Compound 63], the figure is greater than 1 µM; as for `CCNC(=O)[C@@H]1CCCN1C(=O)[C@H]1C[C@H](c2c(-c3ccc(F)cc3)[nH]c3c(F)cc(F)cc32)C1` [Compound 64], greater than 1 µM; as for `C[C@H](NC(=O)[C@H]1C[C@H](c2c(-c3ccc(F)cc3)[nH]c3c(F)cc(F)cc32)C1)C(=O)N(C)C` [Compound 65], 0.25 to 1 µM.
Then `CC(C)(NC(=O)[C@H]1C[C@H](c2c(-c3ccc(F)cc3)[nH]c3c(F)cc(F)cc32)C1)C(=O)N1CCOCC1` [Compound 66], with greater than 1 µM; and `CN1CCN(C(=O)CNC(=O)[C@H]2C[C@H](c3c(-c4ccc(F)cc4)[nH]c4c(F)cc(F)cc43)C2)CC1` [Compound 67], with greater than 1 µM; and `O=C(NCC1(O)CCCC1)[C@H]1C[C@H](c2c(-c3ccc(F)cc3)[nH]c3c(F)cc(F)cc32)C1` [Compound 69], with greater than 1 µM.
`CN1CC(CNC(=O)[C@H]2C[C@H](c3c(-c4ccc(F)cc4)[nH]c4c(F)cc(F)cc43)C2)CC1=O` (stereo partly drawn) [Compound 70]: the IC50 is greater than 1 µM.
As to `Cn1ccc(CNC(=O)[C@H]2C[C@H](c3c(-c4ccc(F)cc4)[nH]c4c(F)cc(F)cc43)C2)n1` [Compound 71], the IC50 was in the range of 0.25 to 1 µM.
Take `COCc1cc(CNC(=O)[C@H]2C[C@H](c3c(-c4ccc(F)cc4)[nH]c4c(F)cc(F)cc43)C2)n[nH]1` [Compound 72]: the IC50 was greater than 1 µM.
As to `Cc1cc(CNC(=O)[C@H]2C[C@H](c3c(-c4ccc(F)cc4)[nH]c4c(F)cc(F)cc43)C2)nn1C` [Compound 73], the IC50 was greater than 1 µM.
Consider `CC1(O)CN(C(=O)[C@H]2C[C@H](c3c(-c4ccc(F)cc4)[nH]c4c(F)cc(F)cc43)C2)C1` [Compound 74], for which the IC50 was 0.25 to 1 µM.
As to `O=C(NC(CO)CF)[C@H]1C[C@H](c2c(-c3ccc(F)cc3)[nH]c3c(F)cc(F)cc32)C1` (stereo partly drawn) [Compound 78], the IC50 is less than 0.25 µM.
